Earlier results, collected in patent US10561603B2, “Core-shell structure and topical agent” (SEKISUI CHEMICAL CO., LTD., priority 2015, dated 2020).
Structures can show the parent of a compound that is named as a salt.

Settings: given with manufacturer and molecular weight of the drug raw material

C[C@@H](O)[C@@H]1NC(=O)[C@H](CCCCN)NC(=O)[C@@H](Cc2c[nH]c3ccccc23)NC(=O)[C@H](Cc2ccccc2)NC(=O)[C@@H](NC(=O)[C@H](N)Cc2ccccc2)CSSC[C@@H](C(=O)N[C@H](CO)[C@@H](C)O)NC1=O [octreotide acetate]
water-octanol partition coefficient: 0.1

CCCc1nc(C)c2c(=O)[nH]c(-c3cc(S(=O)(=O)N4CCN(CC)CC4)ccc3OCC)nn12 [vardenafil hydrochloride trihydrate]
water-octanol partition coefficient: 3.2
